The values below come from PMC5933747 (PLoS ONE, 2018).

The target of data set [1] is T1, human NaV1.7 (Homo sapiens, UniProt Q15858).
Data set [2] addresses T1, human NaV1.7. This is another data set of the same source.
The target of data set [3] is T1, human NaV1.7. Nature of the data set: 125I-ProTx-II radioligand binding to live HEK293 cells stably expressing human NaV1.7. The following applies: 0.5 nM 125I-ProTx-II, 3 h, increasing concentrations of cold peptide.
Data set [4] deals with T1, human NaV1.7. The source holds these as a separate data set.
In data set [5] the target is T2, wild-type NaV1.5 (Homo sapiens, UniProt Q14524).
Data set [6] has as its target T1, human NaV1.7. This is another data set of the same source.
In data set [7] the target is T3, human NaV1.4 (Homo sapiens, UniProt P35499). Nature of the data set: PatchXpress (PX) automated electrophysiology, human NaV1.4. Conditions: for IC50: PX platform, at least ten cells, two to three data points per concentration. In kind it is cell-based. As to the method:
(§1) Human NaV (hNaV) stably transfected cell lines in HEK293 or CHO backgrounds and cell culture methods were as previously described. hNaV1.1-hNaV1.7 cells were obtained from Eurofins Pharma Discovery Services (St. Charles, MO), and hNaV1.8 cells were generated in house. Whole cell patch clamp, PatchXpress, and IWQ electrophysiology voltage protocols as well as DRG neuron isolation were carried out as previously described. NaV1.7-NaV1.5 chimeras were generated and evaluated in BacMam transduced U2-OS cells on the IWQ platform as previously described.

For data set [8], the target named is T4, human NaV1.5 (Homo sapiens, UniProt Q14524). Put plainly: PatchXpress (PX) automated electrophysiology, human NaV1.5. In kind it is cell-based. The following applies: for IC50: PX platform, at least ten cells, two to three data points per concentration.
The target in data set [9] is T1, human NaV1.7. Nature of the data set: Manual whole cell patch clamp, human NaV1.7. In kind it is cell-based. (In patch-clamp work, channel activity is measured electrically.)
The target of a further data set is human NaV1.2 (Homo sapiens, UniProt Q99250). Nature of the data set: Manual whole cell patch clamp, human NaV1.2. In kind it is cell-based. The following applies: 20% channel inactivation, n = 2–4 cells per data point. The procedure:
as §1
(§2) Fig 5 Selectivity of AM-8145 for human NaV channels in heterologous cells and native NaV currents in mDRG neurons. A. Concentration response curves for TTX-S channels including NaV1.1-NaV1.4, NaV1.6-NaV1.7 and mDRG TTX-S. IC50 values with fold-selectivity compared to NaV1.7 are listed in parenthesis. AM-8145 was 30- to 120-fold selective for NaV1.7 over NaV1.1-NaV1.4 and NaV1.6. B. Concentration response curves for TTX-R channels including NaV1.5, NaV1.8 and mDRG TTX-R. AM-8145 was over 1,700-fold selective for NaV1.7 over NaV1.5, NaV1.8 and mDRG TTX-R. Curves in A and B were derived from whole cell patch clamp experiments. Data are presented as mean ± SEM with n = 2–4 cells per data point. C. Representative current traces for TTX-S channels before (black) and after (red) 10 nM AM-8145 addition. […]

The target in data set [10] is T3, human NaV1.4. Nature of the data set: Manual whole cell patch clamp, human NaV1.4. Conditions: 20% channel inactivation, n = 2–4 cells per data point. In kind it is cell-based. The procedure:
as §1, §2

The target of data set [11] is T4, human NaV1.5. Nature of the data set: in vitro. In kind it is cell-based. As to the method: as §1, §2
The next data set addresses T5, human NaV1.8 (Homo sapiens, UniProt Q9Y5Y9).
T5 construct: expressed in transfected cells
Put plainly: Manual whole cell patch clamp, human NaV1.8. Conditions: 20% channel inactivation. In kind it is cell-based. The procedure: as §1, §2

Data set [12] addresses T6, native TTX-R NaV1.8 channels in mouse DRG neurons (Mus musculus, UniProt Q6QIY3).
T6 construct: endogenous in cells; host or cells: dissociated mouse DRG neurons
Nature of the data set: Manual whole cell patch clamp, native TTX-R NaV channels in mouse DRG neurons. In kind it is cell-based. Conditions: 20% channel inactivation. The procedure: as §1, §2

The target in a further data set is T7, wild-type NaV1.7 (Homo sapiens, UniProt Q15858).
T7 construct: expressed in transfected cells; host or cells: BacMam transduced U2-OS cells
Nature of the data set: IWQ chimera mapping, wild-type NaV1.7. In kind it is cell-based. Conditions: IWQ platform; mean ± SEM. As to the method:
as §1
(§3) Given the lack of robust bioactivity of AM-8145 on NaV1.5, we evaluated AM-8145 functional block on a battery of human NaV1.7-NaV1.5 chimeric channels, in which individual voltage sensor domains (transmembrane domains S1-S4 of domains I-IV) or the entire pore domain (transmembrane domains S5-S6 of domains I-IV) of NaV1.7 were inserted into the NaV1.5 backbone.
(§4) Fig 4 AM-8145 maps to the second voltage sensor domain on hNaV1.7. Potency of AM-8145 inhibition of wild-type NaV1.7, wild-type NaV1.5, or chimeric NaV1.7/NaV1.5 channels (red illustrates NaV1.7 sequence and gray illustrates NaV1.5 sequence) on the IWQ platform (mean ± SEM). D = “Domain”; S = “Sensor” corresponding to transmembrane segments 1–4; P = “Pore” corresponding to transmembrane segments 5–6. […]

For data set [13], the system named is NaV1.7/NaV1.5 chimera DIS (first NaV1.7 voltage-sensor domain in NaV1.5 backbone). Nature of the data set: IWQ chimera mapping, chimera DIS. In kind it is cell-based, human. Conditions: IWQ platform; BacMam transduced U2-OS cells. The procedure: as §1, §3, §4
The subject of data set [14] is NaV1.7/NaV1.5 chimera DIIIS (third NaV1.7 voltage-sensor domain in NaV1.5 backbone). Put plainly: IWQ chimera mapping, chimera DIIIS. The following applies: IWQ platform; BacMam transduced U2-OS cells. In kind it is cell-based, human. As to the method: as §1, §3, §4
Data set [15] relates to NaV1.7/NaV1.5 chimera DIVS (fourth NaV1.7 voltage-sensor domain in NaV1.5 backbone). Put plainly: IWQ chimera mapping, chimera DIVS. In kind it is cell-based, human. Conditions: IWQ platform; BacMam transduced U2-OS cells. As to the method: as §1, §3, §4
Data set [16] has as its target T2, wild-type NaV1.5. Nature of the data set: IWQ chimera mapping, wild-type NaV1.5. In kind it is cell-based. The arrangement: expressed in transfected cells; host or cells: BacMam transduced U2-OS cells. The following applies: IWQ platform. The procedure: as §1, §3, §4

Where only a bound is given, the exact number is not on record here.

T3 sequence (P35499 whole entry): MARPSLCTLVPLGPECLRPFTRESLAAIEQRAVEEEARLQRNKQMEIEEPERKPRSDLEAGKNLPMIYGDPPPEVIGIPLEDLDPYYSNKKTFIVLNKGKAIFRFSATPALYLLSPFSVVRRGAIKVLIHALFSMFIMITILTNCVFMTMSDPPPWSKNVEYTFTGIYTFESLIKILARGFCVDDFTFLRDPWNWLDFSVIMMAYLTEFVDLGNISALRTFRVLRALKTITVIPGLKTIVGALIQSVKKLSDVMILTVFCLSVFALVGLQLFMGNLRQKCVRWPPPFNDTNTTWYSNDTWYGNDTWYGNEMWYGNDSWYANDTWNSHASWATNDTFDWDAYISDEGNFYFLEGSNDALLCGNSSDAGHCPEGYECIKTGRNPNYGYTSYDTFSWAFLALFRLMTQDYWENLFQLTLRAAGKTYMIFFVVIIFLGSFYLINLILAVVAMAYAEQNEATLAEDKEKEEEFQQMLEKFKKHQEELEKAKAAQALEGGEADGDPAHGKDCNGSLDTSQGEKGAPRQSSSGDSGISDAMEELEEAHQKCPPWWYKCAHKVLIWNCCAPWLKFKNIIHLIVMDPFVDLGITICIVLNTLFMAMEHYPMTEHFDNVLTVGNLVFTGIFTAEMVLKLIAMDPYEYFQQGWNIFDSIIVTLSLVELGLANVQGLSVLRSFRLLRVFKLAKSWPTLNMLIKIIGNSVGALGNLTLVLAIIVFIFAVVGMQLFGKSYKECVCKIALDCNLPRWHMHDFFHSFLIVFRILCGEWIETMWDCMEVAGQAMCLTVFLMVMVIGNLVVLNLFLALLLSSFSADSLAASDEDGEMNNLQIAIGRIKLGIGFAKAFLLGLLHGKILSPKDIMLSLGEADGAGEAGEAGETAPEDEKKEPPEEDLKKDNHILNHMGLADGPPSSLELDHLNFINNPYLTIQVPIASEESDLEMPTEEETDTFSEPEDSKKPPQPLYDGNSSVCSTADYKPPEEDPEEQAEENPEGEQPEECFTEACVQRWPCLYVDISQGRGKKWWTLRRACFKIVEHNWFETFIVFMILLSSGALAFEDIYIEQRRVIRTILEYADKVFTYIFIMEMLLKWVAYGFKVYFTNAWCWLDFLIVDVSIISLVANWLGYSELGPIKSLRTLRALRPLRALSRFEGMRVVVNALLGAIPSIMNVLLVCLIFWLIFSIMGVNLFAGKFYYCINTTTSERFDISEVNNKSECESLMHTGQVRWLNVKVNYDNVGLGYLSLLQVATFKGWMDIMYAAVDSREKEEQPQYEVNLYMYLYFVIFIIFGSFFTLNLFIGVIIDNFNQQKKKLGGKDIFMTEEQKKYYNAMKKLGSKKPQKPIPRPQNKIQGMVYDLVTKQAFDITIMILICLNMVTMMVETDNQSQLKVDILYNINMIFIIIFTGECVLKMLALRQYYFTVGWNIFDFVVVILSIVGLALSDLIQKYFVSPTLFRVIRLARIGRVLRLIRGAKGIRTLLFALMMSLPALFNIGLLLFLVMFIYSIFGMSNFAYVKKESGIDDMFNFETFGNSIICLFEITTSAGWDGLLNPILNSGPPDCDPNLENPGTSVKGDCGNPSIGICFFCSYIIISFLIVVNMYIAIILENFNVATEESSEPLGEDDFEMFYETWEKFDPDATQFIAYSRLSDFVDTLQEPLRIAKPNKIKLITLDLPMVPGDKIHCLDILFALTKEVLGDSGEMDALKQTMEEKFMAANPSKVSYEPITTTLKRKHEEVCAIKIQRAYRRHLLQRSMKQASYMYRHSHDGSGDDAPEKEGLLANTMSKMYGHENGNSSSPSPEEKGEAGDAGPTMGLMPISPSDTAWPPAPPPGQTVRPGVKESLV
T1 sequence (Q15858 whole entry): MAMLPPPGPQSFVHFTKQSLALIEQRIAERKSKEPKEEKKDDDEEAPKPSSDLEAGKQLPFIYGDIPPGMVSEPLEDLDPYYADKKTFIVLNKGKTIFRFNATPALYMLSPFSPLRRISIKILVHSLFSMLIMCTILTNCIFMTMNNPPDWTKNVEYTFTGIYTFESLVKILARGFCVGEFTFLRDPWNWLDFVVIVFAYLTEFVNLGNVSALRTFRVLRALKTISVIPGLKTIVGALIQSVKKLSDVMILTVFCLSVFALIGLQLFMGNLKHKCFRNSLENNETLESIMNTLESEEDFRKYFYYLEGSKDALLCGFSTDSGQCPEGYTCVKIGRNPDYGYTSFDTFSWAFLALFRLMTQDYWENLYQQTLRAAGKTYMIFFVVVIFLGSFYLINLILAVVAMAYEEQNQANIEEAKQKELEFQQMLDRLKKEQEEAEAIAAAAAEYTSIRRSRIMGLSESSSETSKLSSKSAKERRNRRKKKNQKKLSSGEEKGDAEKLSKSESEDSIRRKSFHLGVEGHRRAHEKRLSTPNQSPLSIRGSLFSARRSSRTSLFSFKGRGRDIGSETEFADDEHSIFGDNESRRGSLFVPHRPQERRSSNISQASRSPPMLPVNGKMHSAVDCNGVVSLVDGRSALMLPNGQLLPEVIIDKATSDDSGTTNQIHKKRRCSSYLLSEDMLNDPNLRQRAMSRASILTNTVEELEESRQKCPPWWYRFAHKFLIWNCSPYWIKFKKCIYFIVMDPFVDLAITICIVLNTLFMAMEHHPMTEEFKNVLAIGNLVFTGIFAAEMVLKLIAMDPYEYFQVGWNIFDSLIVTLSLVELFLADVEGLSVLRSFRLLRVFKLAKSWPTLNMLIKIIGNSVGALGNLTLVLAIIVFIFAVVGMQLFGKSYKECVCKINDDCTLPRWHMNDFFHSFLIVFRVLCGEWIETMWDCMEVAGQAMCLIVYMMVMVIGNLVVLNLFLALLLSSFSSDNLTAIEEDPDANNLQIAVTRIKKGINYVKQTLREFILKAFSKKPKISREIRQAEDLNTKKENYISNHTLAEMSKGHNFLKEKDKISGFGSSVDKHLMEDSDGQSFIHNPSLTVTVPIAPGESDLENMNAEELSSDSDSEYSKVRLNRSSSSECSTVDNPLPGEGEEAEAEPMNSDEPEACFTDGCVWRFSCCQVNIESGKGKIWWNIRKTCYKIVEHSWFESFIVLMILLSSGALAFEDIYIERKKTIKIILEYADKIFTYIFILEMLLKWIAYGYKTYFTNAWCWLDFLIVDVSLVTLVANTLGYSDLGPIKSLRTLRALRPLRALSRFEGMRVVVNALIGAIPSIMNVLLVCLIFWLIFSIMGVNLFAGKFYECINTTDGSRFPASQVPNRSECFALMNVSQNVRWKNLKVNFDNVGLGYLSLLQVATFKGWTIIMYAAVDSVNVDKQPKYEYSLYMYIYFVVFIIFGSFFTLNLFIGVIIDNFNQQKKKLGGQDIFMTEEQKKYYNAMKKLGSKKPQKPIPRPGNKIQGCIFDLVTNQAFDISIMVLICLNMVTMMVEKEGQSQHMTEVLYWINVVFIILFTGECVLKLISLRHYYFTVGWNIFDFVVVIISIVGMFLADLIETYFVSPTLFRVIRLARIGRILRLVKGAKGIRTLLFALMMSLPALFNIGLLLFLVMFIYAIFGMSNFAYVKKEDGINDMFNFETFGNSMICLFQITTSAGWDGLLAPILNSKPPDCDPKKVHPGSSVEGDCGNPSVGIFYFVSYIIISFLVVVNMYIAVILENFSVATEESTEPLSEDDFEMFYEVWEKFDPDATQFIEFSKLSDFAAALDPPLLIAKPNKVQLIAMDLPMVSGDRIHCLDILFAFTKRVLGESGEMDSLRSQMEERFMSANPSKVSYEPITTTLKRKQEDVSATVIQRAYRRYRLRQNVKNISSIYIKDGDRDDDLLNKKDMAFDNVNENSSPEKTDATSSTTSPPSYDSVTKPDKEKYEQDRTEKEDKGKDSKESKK
Chain of JzTx-V(1–29) (Q2PAY4 54-83): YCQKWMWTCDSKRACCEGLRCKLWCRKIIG
T7 sequence (Q15858 whole entry): as the sequence (Q15858 whole entry) above

“JzTx-V(1–29) (from UniProt Q2PAY4 54-83) (peptide)”: in the data set with human NaV1.7 [1], the NaV1.7 IC50 (nM), block of human NaV1.7 current in HEK293 cells, PatchXpress (PX) platform stood at 0.6 nM. Further, the potency (IC50) of inhibition of NaV1.7 by manual patch clamp, voltage protocol with 20% of channels inactivated with human NaV1.7 [2] was 0.15 nM.

Turning to “HwTx-IV (ECLEIFKACNPSNDQCCKSSKLVCSRKTRWCKYQIGK)”, in the data set with human NaV1.7 [3], the “competition for 125I-ProTx-II binding” value was “competed”.

Regarding Pra-[Nle6;Glu28]JzTx-V(1–29) (peptide), the NaV1.7 IC50 (nM), block of human NaV1.7 current, PatchXpress (PX) platform with human NaV1.7 [1] came to 0.5 nM. The compound further yielded an IC50 of block of wild-type NaV1.7, IWQ platform (chimera panel) with human NaV1.7 [4] of 50 nM. This compound also returned an IC50 of block of wild-type NaV1.5, IWQ platform (chimera panel) with wild-type NaV1.5 [5] of over 3000 nM. For the same compound, in the data set with human NaV1.7 [6], the IC50 of block of human NaV1.7, manual patch clamp, voltage protocol with 20% of NaV channels inactivated stood at 0.58 nM.

Regarding `C#CC[C@@H]1NC(=O)[C@H](CCCNC(=N)N)NC(=O)[C@H](CCCCN)NC(=O)[C@H](CO)NC(=O)[C@H](CC(=O)O)NC(=O)[C@@H]2CSSC[C@@H]3NC(=O)[C@H](CCCNC(=N)N)NC(=O)[C@H](CC(C)C)NC(=O)CNC(=O)[C@H](CCC(=O)O)NC(=O)[C@H](CSSC[C@H](NC(=O)[C@@H](N)Cc4ccc(O)cc4)C(=O)N[C@@H](CCC(N)=O)C(=O)N[C@@H](CCCCN)C(=O)N[C@@H](Cc4c[nH]c5ccccc45)C(=O)N[C@@H](CCCC)C(=O)N[C@@H](Cc4c[nH]c5ccccc45)C(=O)N[C@@H]([C@@H](C)O)C(=O)N2)NC(=O)[C@H](CSSC[C@@H](C(=O)N[C@@H](CCCNC(=N)N)C(=O)N[C@@H](CCCCN)C(=O)N[C@@H](CCC(=O)O)C(=O)N[C@H](C(N)=O)[C@@H](C)CC)NC(=O)[C@H](Cc2c[nH]c4ccccc24)NC(=O)[C@H](CC(C)C)NC(=O)[C@H](CCCCN)NC3=O)NC1=O` [Peptide 6, [Nle6;Pra14;Glu28]JzTx-V(1–29)], the IC50 against human NaV1.4 [7] was found to be 110 nM; on human NaV1.5 [8], 3500 nM.

As to `C#CC[C@H](N)C(=O)N[C@@H](Cc1ccc(O)cc1)C(=O)N[C@H]1CSSC[C@@H]2NC(=O)[C@@H]3CSSC[C@@H](C(=O)N[C@@H](CCCNC(=N)N)C(=O)N[C@@H](CCCCN)C(=O)N[C@@H](CCC(=O)O)C(=O)N[C@H](C(N)=O)[C@@H](C)CC)NC(=O)[C@H](Cc4c[nH]c5ccccc45)NC(=O)[C@H](CC(C)C)NC(=O)[C@H](CCCCN)NC(=O)[C@H](CSSC[C@H](NC(=O)[C@H]([C@@H](C)O)NC(=O)[C@H](Cc4c[nH]c5ccccc45)NC(=O)[C@H](CCCC)NC(=O)[C@H](Cc4c[nH]c5ccccc45)NC(=O)[C@H](CCCCN)NC(=O)[C@H](CCC(N)=O)NC1=O)C(=O)N[C@@H](CC(=O)O)C(=O)N[C@@H](CO)C(=O)N[C@@H](CCCCN)C(=O)N[C@@H](CCCNC(=N)N)C(=O)N[C@@H](C)C(=O)N3)NC(=O)[C@H](CCCNC(=N)N)NC(=O)[C@H](CC(C)C)NC(=O)CNC(=O)[C@H](CCC(=O)O)NC2=O` [AM-8145, Pra-[Nle6;Glu28]JzTx-V(1–29)], the “selectivity for NaV1.7 over NaV1.4” value on human NaV1.4 [7] (PX platform IC50 ratio) is recorded as 300 fold. For the same compound, the IC50 at human NaV1.4 [7] was 145 nM; on human NaV1.5 [8], 3000 nM; at human NaV1.7 [9] (manual patch clamp, voltage protocol with 20% of channels inactivated) it was 0.58 nM; at human NaV1.2 it was 43.5 nM; against human NaV1.4 [10], 71 nM; against human NaV1.5 [11] (manual patch clamp, 20% channel inactivation), over 1000 nM. Further, the IC50 is over 1000 nM against human NaV1.8; over 1000 nM in data set [12]; 50 ± 10 nM on wild-type NaV1.7; over 3000 nM in data set [13]; over 3000 nM in [14]; over 3000 nM in data set [15]. Also, the IC50 on wild-type NaV1.5 [16] was over 3000 nM. Further, the selectivity ratio on human NaV1.5 [8] (human, PX platform IC50 ratio, read-out: selectivity for NaV1.7 over NaV1.5) was 6000; at human NaV1.5 [11] (manual patch clamp IC50 ratio, read-out: fold-selectivity compared to NaV1.7, NaV1.5), over 1700. Also, the “selectivity over human TTX-R channels (NaV1.5, NaV1.8) and native TTX-R channels in mouse DRG neurons” value on human NaV1.7 [9] (manual patch clamp IC50 ratios) was “over 1,000 fold”. Moreover, the “selectivity over other human TTX-S Nav channels (NaV1.1, NaV1.2, NaV1.3, NaV1.4, NaV1.6)” value on human NaV1.7 [9] (manual patch clamp IC50 ratios) is listed as 30- to 120 fold.

As to `C#CC[C@@H]1NC(=O)[C@H](CC(=O)O)NC(=O)[C@@H]2CSSC[C@@H]3NC(=O)[C@H](CCCNC(=N)N)NC(=O)[C@H](CC(C)C)NC(=O)CNC(=O)[C@H](CCC(=O)O)NC(=O)[C@H](CSSC[C@H](NC(=O)[C@@H](N)Cc4ccc(O)cc4)C(=O)N[C@@H](CCC(N)=O)C(=O)N[C@@H](CCCCN)C(=O)N[C@@H](Cc4c[nH]c5ccccc45)C(=O)N[C@@H](CCCC)C(=O)N[C@@H](Cc4c[nH]c5ccccc45)C(=O)N[C@@H]([C@@H](C)O)C(=O)N2)NC(=O)[C@H](CSSC[C@@H](C(=O)N[C@@H](CCCNC(=N)N)C(=O)N[C@@H](CCCCN)C(=O)N[C@@H](CCC(=O)O)C(=O)N[C@H](C(N)=O)[C@@H](C)CC)NC(=O)[C@H](Cc2c[nH]c4ccccc24)NC(=O)[C@H](CC(C)C)NC(=O)[C@H](CCCCN)NC3=O)NC(=O)[C@H](C)NC(=O)[C@H](CCCNC(=N)N)NC(=O)[C@H](CCCCN)NC1=O` [Peptide 5, [Nle6;Pra11;Glu28]JzTx-V(1–29)], the IC50 on human NaV1.4 [7] was determined as 194 nM; against human NaV1.5 [8], 6000 nM.

What is called IC50 is the concentration at which inhibition is half-maximal. Read a low IC50 as higher potency.
